Data as given in article PMC4208094, “Optical control of insulin release using a photoswitchable sulfonylurea” (Nature Communications, 2014).

Experiments:
SUR1 [1] = biological target: T1, SUR1 (Rattus norvegicus, UniProt Q09429); assay: [3H]-glibenclamide displacement in SUR1-expressing HEK293t cells under illumination; format: cell-based; parameters: gene Abcc8
Target sequence in this assay (Q09429 whole entry): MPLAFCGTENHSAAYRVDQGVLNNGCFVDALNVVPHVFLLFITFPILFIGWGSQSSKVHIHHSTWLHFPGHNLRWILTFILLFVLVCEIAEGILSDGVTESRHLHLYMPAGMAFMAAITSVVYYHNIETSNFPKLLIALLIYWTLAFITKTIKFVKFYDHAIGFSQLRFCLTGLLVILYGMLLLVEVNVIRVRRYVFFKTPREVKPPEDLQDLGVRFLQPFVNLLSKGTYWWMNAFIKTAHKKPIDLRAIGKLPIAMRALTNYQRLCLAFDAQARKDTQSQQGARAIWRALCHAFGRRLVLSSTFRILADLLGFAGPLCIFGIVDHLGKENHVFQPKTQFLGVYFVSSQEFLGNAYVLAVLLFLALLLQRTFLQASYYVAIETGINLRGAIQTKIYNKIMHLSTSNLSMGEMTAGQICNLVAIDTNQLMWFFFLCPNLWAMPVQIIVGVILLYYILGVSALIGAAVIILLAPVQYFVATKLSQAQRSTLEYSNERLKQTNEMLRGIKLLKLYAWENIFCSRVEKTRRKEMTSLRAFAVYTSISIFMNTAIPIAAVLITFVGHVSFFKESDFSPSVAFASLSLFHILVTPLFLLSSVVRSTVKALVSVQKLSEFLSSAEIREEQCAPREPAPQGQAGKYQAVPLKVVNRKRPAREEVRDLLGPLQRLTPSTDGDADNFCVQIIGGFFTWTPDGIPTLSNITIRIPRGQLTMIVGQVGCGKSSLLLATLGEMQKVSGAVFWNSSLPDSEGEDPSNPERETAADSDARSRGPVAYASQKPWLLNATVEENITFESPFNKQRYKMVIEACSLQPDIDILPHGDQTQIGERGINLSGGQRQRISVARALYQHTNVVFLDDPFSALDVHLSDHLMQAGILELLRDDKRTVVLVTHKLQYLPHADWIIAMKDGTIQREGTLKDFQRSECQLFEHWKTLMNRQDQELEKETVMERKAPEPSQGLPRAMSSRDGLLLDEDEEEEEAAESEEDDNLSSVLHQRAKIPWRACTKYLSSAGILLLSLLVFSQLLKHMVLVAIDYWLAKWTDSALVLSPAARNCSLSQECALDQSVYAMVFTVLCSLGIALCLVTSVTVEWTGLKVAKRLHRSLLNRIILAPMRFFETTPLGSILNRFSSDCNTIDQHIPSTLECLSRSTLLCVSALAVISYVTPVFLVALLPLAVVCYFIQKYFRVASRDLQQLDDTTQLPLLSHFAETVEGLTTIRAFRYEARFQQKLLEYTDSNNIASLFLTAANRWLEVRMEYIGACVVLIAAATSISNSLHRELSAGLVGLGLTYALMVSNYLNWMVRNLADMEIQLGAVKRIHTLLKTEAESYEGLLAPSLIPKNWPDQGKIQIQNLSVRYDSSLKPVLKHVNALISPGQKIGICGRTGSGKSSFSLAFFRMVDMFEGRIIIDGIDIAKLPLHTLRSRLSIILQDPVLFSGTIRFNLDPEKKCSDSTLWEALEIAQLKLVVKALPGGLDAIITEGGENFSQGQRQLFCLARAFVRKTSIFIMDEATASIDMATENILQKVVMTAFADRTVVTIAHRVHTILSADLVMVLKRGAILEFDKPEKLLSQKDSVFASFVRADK

SUR1 [2] = biological target: T1, SUR1; assay: whole-cell patch clamp of heterologous KATP channels, […] tolbutamide; format: cell-based; parameters: gene Abcc8; rat SUR1 (Genbank L40624) co-expressed with Kir6.2 in HEK293t cells; with Kir6.2
Target sequence in this assay (Q09429 whole entry): as above
Target sequence in this assay (Q61743 whole entry partner): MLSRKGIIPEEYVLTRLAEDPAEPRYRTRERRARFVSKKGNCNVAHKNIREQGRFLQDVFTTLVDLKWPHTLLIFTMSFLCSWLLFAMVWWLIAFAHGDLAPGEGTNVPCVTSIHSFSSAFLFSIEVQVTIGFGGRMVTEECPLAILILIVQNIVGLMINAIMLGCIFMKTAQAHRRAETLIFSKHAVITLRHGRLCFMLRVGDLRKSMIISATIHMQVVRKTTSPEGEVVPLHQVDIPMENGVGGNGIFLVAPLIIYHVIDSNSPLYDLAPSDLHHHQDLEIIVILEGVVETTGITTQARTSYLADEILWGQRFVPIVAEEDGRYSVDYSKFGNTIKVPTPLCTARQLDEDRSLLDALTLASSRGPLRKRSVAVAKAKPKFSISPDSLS

IC50 (SUR1 [1]) [µM] | Compound | KATP current response (SUR1 [2])
14.8 | CCN(CC)c1ccc(/N=N\c2ccc(S(=O)(=O)NC(=O)NC3CCCCC3)cc2)cc1 [JB253, (Z)-N-(cyclohexylcarbamoyl)-4-((4-(diethylamino)phenyl)diazenyl)benzenesulfonamide] | –
– | CCCCNC(=O)NS(=O)(=O)c1ccc(C)cc1 [tolbutamide] | Tolbutamide and diazoxide-sensitive inward-rectifying K^+ currents could be recorded in transfected cells
